The term IC50 denotes the point on the concentration scale where inhibition reaches its midpoint.

Results on eleven compounds are retold here after US20230027361A1, “METTL3 MODULATORS” (priority 2019, published 2023).

Like-named read-outs stand apart in the source and are kept apart here.

The target of one assay is METTL3/METTL14 (Homo sapiens, UniProt Q86U44). As to the kind of experiment: METTL3-14 Standard Enzyme Assay (METTL3 biochemical assay). The method, boiled down: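 Tritium transfer from ³H-SAM (100 nM) to biotinylated RNA (100 nM) captured on streptavidin flashplates and counted by scintillation. Enzyme complex (2.5 nM) with compound, 5 min preincubation, 30 min reaction at ambient temperature, HEPES pH 7.5 buffer, stopped by excess unlabeled SAM.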

The target of a further assay is METTL1/WDR4 (Homo sapiens, UniProt Q9UBP6). As to the kind of experiment: METTL1 Assay (METTL1 biochemical assay). The method, boiled down: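 Radiometric methyltransfer by METTL1/WDR4 (6.25 nM f.c., 5 min preincubation) at ambient temperature in HEPES pH 7.5, KCl, MgCl2, DTT; started with 25 nM 3′-biotinylated RNA and 60 nM 3H-SAM, run 20 min, quenched with 15 μM cold SAM. Product captured on streptavidin flashplates (2 h, 25° C), counted by scintillation.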

A further assay has as its target PRMT5-MEP50 (Homo sapiens, UniProt O14744). As to the kind of experiment: PRMT5 Assay (PRMT5 biochemical assay). A digest of the protocol: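 Radiometric methyltransferase read-out: after 60 min reaction, excess unlabelled SAM (15 μM) stops turnover and biotinylated H4 peptide (100 nM) carrying 3H-methyl from 250 nM 3H-SAM is captured on streptavidin flashplates (2 h, 25° C) for scintillation counting. Enzyme, 2.5 nM PRMT5-MEP50, was preincubated 5 min with compound in pH 8.0 Tris buffer with DTT and Tween.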

Assay [1] relates to m6A in cellular mRNA of MOLM-13 cells. Nature of the assay: m6A-mRNA LC-MS/MS Assay (m6A cellular assay). Conditions: Homo sapiens, MOLM-13, read-out: m^6A IC50. The assay is classed as cell-based. How it is done: Cells were harvested by centrifugation followed by mRNA extraction using DIRECT Dynabeads mRNA DIRECT kit (Life Technologies). mRNA was quantified on NanoDrop spectrophotometer (Thermo Fisher Scientific) and digested into single nucleosides using Nucleoside Digestion Mix (New England Biolabs). […] Quantification is performed in comparison with the standard curve, obtained from pure nucleoside standards (Selleck Chemicals) running with the same batch of samples. Percentage m^6A in cellular mRNA is calculated as 100*(m^6A/A).

Assay [2] concerns MOLM-13 cells. Nature of the assay: MOLM-13 48 Hour Cell Proliferation Assay. The assay is classed as cell-based. Conditions: Homo sapiens. The method, boiled down: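 IC50 derived by 4-parameter logistic regression of CellTiter-Glo luminescence, scaled between DMSO (0% death) and staurosporine (100% death) controls. Compounds applied for 48 h at 37 °C as 10-point, 4-fold dilutions, 0.25% DMSO final, to MOLM-13 cells pre-seeded overnight in RPMI 1640 plus 10% FBS.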

Assay [3] deals with MOLM-13 cells. As to the kind of experiment: MOLM-13 96 Hour Cell Proliferation Assay. The assay is classed as cell-based. Conditions: Homo sapiens, MOLM-13, 96 h. The method, boiled down:
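MOLM-13 cells in RPMI 1640 with 10% FBS were plated overnight at 37 °C, then exposed to compound dilutions at 0.25% DMSO final for 96 h. Viability was read by CellTiter-Glo luminescence, normalised to staurosporine (100% death) and DMSO (0% death) controls, and IC50 was fitted by 4-parameter logistic regression.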

A further assay deals with T1, METTL16 (Homo sapiens, UniProt Q86W50).
T1 sequence (Q86W50 1-562): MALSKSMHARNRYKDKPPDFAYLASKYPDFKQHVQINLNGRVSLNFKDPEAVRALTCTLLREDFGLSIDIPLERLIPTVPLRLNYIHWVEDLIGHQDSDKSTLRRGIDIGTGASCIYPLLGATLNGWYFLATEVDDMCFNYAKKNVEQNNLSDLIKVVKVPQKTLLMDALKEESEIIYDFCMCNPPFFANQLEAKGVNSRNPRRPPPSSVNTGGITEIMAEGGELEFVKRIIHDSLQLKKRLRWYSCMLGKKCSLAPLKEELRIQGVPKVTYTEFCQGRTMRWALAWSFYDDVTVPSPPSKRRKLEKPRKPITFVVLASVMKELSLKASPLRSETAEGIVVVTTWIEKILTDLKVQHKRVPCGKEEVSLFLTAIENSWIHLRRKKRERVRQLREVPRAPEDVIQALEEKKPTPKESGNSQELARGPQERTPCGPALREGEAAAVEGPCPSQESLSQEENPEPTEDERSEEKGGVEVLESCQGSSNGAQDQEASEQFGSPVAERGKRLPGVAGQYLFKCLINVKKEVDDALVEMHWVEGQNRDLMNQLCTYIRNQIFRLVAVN
As to the kind of experiment: METTL16 Assay (METTL16 biochemical assay). Conditions: read-out: METTL16 IC50. The procedure:
Assays were performed in a 25 μl-volume in 384-well V-bottom polypropylene microplates (Greiner Bio-One, cat. No. 781280) at ambient temperature. Optimized 1× assay buffer was 20 mM HEPES pH 7.5, 50 mM KCl, 1 mM DTT, 0.01% Tween, 0.01% BSG, 0.004 U/μl RNAseOUT (cat. No. 10777019, ThermoFisher Scientific, Waltham, Mass.). For compound screening METTL16 (final concentration, f.c.=100 nM) was added using a Multidrop Combi (ThermoFisher Scientific, Waltham, Mass.) and preincubated for 5 min. Reactions were started by adding 3′ biotinylated RNA ([…]-biotin) (f.c.=50 nM), 3H-SAM (f.c.=200 nM) and non-radiolabeled SAM (f.c.=800 nM) substrates. Reactions proceeded for 20 minutes and were quenched with excess non-radioactive SAM (f.c.=100 μM). The reactions were then transferred to streptavidin-coated flashplates and incubated for 2 hours at 25° C. Following two washing cycles with 0.1% Tween-20, the plates were sealed and read on a TopCount (PerkinElmer, Waltham, Mass.) plate-based scintillation counter. For determination of kinetic parameters, reaction times were optimized so that measurements were taken during the initial velocity phase of the reaction.

Where [4] appears, read: METTL3 biochemical assay, read-out: METTL3 IC50.
Setting [5] is: read-out: METTL1 IC50, METTL1 biochemical assay.
The mark [6] stands for this setting: PRMT5 biochemical assay, read-out: PRMT5 IC50.

METTL1/WDR4, sequence (Q9UBP6 whole entry, species assumed): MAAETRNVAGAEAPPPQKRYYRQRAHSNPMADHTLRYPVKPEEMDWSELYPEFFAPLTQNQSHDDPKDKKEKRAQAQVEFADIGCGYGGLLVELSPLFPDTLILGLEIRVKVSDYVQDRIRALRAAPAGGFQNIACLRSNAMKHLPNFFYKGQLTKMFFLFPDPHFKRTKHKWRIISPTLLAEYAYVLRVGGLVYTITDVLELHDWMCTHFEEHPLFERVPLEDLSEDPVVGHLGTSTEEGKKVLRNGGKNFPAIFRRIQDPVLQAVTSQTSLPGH
METTL1/WDR4, sequence (P57081 whole entry partner, species assumed): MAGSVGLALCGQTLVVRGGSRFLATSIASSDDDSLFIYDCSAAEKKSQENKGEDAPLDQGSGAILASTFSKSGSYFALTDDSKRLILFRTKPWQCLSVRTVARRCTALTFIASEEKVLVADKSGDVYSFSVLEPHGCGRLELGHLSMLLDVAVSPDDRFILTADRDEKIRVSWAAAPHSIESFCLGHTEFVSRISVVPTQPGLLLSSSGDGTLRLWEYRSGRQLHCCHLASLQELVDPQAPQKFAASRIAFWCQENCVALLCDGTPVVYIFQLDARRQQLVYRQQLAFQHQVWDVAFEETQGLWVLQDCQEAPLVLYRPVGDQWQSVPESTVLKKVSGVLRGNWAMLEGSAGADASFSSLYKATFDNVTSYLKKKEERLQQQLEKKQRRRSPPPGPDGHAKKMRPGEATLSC
METTL3/METTL14, sequence (Q86U44 whole entry, species assumed): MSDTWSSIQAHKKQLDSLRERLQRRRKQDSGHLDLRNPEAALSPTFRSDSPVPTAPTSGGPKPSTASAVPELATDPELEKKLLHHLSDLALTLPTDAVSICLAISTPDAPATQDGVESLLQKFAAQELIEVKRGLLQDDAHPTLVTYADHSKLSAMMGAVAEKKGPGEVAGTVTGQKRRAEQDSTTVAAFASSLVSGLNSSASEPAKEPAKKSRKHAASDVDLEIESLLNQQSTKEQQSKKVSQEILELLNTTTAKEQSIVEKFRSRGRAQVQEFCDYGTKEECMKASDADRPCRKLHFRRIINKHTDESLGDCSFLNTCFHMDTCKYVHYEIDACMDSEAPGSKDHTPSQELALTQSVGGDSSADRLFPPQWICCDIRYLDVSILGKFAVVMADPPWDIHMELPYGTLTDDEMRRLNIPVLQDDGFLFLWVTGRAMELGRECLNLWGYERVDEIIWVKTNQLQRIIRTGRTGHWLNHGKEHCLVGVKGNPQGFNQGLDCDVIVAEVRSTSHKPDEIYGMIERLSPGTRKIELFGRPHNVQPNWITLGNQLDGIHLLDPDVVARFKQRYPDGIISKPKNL
METTL3/METTL14, sequence (Q9HCE5 whole entry partner, species assumed): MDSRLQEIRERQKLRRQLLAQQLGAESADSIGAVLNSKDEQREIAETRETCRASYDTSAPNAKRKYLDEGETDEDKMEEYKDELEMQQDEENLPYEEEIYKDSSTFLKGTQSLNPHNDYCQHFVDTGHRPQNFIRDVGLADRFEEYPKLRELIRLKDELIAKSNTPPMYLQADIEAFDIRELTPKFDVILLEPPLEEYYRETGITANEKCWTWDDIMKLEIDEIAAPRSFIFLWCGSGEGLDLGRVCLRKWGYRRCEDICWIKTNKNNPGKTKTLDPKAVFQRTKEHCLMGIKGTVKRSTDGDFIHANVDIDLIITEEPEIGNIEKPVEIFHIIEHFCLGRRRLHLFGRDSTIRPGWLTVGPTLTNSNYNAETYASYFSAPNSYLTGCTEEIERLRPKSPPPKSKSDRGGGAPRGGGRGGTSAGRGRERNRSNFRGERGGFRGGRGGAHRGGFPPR
PRMT5-MEP50, sequence (O14744 whole entry): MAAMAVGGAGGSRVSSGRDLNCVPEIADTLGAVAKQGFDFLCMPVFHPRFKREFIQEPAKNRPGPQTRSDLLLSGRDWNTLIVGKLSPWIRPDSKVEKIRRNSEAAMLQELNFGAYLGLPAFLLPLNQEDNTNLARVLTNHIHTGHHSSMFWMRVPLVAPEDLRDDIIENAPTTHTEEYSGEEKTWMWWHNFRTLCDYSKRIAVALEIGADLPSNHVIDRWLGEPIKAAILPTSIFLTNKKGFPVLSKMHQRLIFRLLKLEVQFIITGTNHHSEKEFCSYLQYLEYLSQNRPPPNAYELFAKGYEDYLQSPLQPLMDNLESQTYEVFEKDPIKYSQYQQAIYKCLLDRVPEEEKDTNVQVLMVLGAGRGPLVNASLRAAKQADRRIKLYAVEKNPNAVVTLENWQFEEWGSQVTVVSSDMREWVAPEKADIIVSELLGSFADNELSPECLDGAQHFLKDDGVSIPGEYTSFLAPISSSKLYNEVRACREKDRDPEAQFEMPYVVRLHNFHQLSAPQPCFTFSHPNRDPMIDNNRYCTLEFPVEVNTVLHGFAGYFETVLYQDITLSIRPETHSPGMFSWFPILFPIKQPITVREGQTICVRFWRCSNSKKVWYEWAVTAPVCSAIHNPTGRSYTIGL
PRMT5-MEP50, sequence (Q9BQA1 whole entry partner): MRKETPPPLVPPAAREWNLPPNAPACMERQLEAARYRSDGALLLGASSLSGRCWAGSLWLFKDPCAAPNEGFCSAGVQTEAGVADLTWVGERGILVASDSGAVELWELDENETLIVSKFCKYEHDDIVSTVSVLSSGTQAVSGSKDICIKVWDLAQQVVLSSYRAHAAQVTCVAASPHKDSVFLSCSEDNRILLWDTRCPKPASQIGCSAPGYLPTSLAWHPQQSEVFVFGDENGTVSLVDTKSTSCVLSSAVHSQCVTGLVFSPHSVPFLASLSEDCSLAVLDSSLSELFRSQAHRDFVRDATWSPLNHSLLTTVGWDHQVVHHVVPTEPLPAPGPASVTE

As for `CNc1ccc2ccc(OC[C@H]3O[C@@H](n4cc(Br)c5c(N)ncnc54)[C@@H](F)[C@@H]3O)cc2n1` [I-46], the IC50 on METTL3/METTL14 (setting [4]) is < 10 nM; at METTL1/WDR4 (setting [5]) it was > 1000 nM; on PRMT5-MEP50 (setting [6]), 10 to 100 nM; in assay [1] it was 1000 to 10000 nM; in the assay on MOLM-13 cells [2] it was 1000 to 10000 nM; in the assay with MOLM-13 cells [3], < 1000 nM.
On to `Nc1ncnc2c1ccn2[C@@H]1C[C@H](CCc2ccccn2)[C@@H](O)[C@H]1O` [I-118], for which the IC50 is > 1000 nM on METTL3/METTL14 (setting [4]); > 1000 nM at METTL1/WDR4 (setting [5]); 100 to 1000 nM on PRMT5-MEP50 (setting [6]); > 10000 nM in assay [1]; > 10000 nM in the assay on MOLM-13 cells [2]; > 10000 nM in the assay on MOLM-13 cells [3].
`CNc1ccc2ccc(OC[C@H]3O[C@@H](n4cc(-c5cc[nH]n5)c5c(N)ncnc54)[C@@H](F)[C@@H]3O)cc2n1` [I-228]: the IC50 at METTL3/METTL14 was < 10 nM; on METTL1/WDR4 (METTL1 biochemical assay, read-out: METTL1 IC50), > 1000 nM; on PRMT5-MEP50, 100 to 1000 nM; in assay [1], 1000 to 10000 nM; in the assay on MOLM-13 cells [2], < 1000 nM; in the assay with MOLM-13 cells [3], < 1000 nM.
Turning to `CNc1ccc2ccc(OC[C@H]3O[C@@H](n4cc(Cl)c5c(N)ncnc54)C[C@@H]3O)cc2n1` [I-48], the half-inhibitory concentration (IC50) at METTL3/METTL14 (setting [4]) was < 10 nM; at METTL1/WDR4 (setting [5]), > 1000 nM; at PRMT5-MEP50 (setting [6]), 100 to 1000 nM; in assay [1], 1000 to 10000 nM; in the assay on MOLM-13 cells [2] it was > 10000 nM; with MOLM-13 cells [3], 1000 to 10000 nM.
For the compound `CNc1ccc2ccc(OC[C@H]3O[C@@H](n4cc(Cl)c5c(N)ncnc54)[C@@H](F)[C@@H]3O)cc2n1` [I-45, (2R,3R,4S,5R)-5-(4-amino-5-chloro-7H-pyrrolo[2,3-d]pyrimidin-7-yl)-4-fluoro-2-(((2-(methylamino)quinolin-7-yl)oxy)methyl)tetrahydrofuran-3-ol], the IC50 on METTL3/METTL14 (setting [4]) was < 10 nM; against METTL1/WDR4, > 1000 nM; at PRMT5-MEP50 (setting [6]), 10 to 100 nM; in assay [1], 1000 to 10000 nM; with MOLM-13 cells [2], 1000 to 10000 nM; in the assay on MOLM-13 cells [3], 1000 to 10000 nM.
Take `CNc1ccc2ccc(OC[C@H]3O[C@@H](n4cc(C5CCCC5)c5c(N)ncnc54)C[C@@H]3O)cc2n1` [I-30, (2R,3S,5R)-5-(4-amino-5-cyclopentyl-7H-pyrrolo[2,3-d]pyrimidin-7-yl)-2-(((2-(methylamino)quinolin-7-yl)oxy)methyl)tetrahydrofuran-3-ol]: the IC50 was < 10 nM at METTL3/METTL14 (setting [4]); > 1000 nM at METTL1/WDR4; > 1000 nM at PRMT5-MEP50 (setting [6]); 1000 to 10000 nM in assay [1]; 1000 to 10000 nM in the assay on MOLM-13 cells [2]; < 1000 nM in the assay on MOLM-13 cells [3].
With `CN(C)c1ccc2ccc(OC[C@H]3O[C@@H](n4cc(C5CCCC5)c5c(N)ncnc54)[C@H](O)[C@@H]3O)cc2n1` [I-42], the IC50 on METTL3/METTL14 (setting [4]) is < 10 nM; on METTL1/WDR4 (setting [5]) it was > 1000 nM; at PRMT5-MEP50 (setting [6]), 10 to 100 nM; in assay [1], 1000 to 10000 nM; in the assay on MOLM-13 cells [2], 1000 to 10000 nM; in the assay on MOLM-13 cells [3], 1000 to 10000 nM.
As for `CNc1ccc2ccc(CC[C@H]3C[C@@H](n4cc(CO)c5c(N)ncnc54)[C@H](O)[C@@H]3O)cc2n1` [I-52, (1R,2S,3R,5S)-3-[4-amino-5-(hydroxymethyl)-7H-pyrrolo[2,3-d]pyrimidin-7-yl]-5-{2-[2-(methylamino)quinolin-7-yl]ethyl}cyclopentane-1,2-diol], the IC50 on METTL3/METTL14 (setting [4]) is < 10 nM; against METTL1/WDR4, > 1000 nM; at METTL16, > 1000 nM; at PRMT5-MEP50 (setting [6]), < 10 nM; in assay [1] it was 1000 to 10000 nM.
On to `CNc1ccc2ccc(CC[C@H]3C[C@@H](n4cc(C5CCCCC5)c5c(N)ncnc54)[C@H](O)[C@@H]3O)cc2n1` [I-59], for which the 50% inhibitory concentration (IC50) on METTL3/METTL14 (setting [4]) was < 10 nM; at METTL1/WDR4 (setting [5]), > 1000 nM; on PRMT5-MEP50 (setting [6]), < 10 nM; in assay [1], 1000 to 10000 nM; in the assay with MOLM-13 cells [2], 1000 to 10000 nM; in the assay with MOLM-13 cells [3] it was < 1000 nM.
In the case of `CNc1ccc2ccc(OC[C@H]3O[C@@H](n4cc(-c5cn(C)cn5)c5c(N)ncnc54)[C@@H](F)[C@@H]3O)cc2n1` [I-28], the IC50 was < 10 nM at METTL3/METTL14 (read-out: METTL3 IC50, METTL3 biochemical assay); > 1000 nM on METTL16; 100 to 1000 nM at PRMT5-MEP50 (read-out: PRMT5 IC50, PRMT5 biochemical assay); 1000 to 10000 nM in assay [1]; 1000 to 10000 nM in the assay on MOLM-13 cells [2].
Turning to `CCNc1ccc2ccc(OC[C@H]3O[C@@H](n4cc(Cl)c5c(N)ncnc54)[C@@H](F)[C@@H]3O)cc2n1` [I-234], the IC50 is < 10 nM on METTL3/METTL14 (setting [4]); > 1000 nM against METTL1/WDR4; 10 to 100 nM on PRMT5-MEP50 (setting [6]); 1000 to 10000 nM in assay [1]; 1000 to 10000 nM in the assay on MOLM-13 cells [2]; 1000 to 10000 nM in the assay with MOLM-13 cells [3].
